Results as given in US8710045B2, “Agents for preventing and treating disorders involving modulation of the ryanodine receptors” (The Trustees of Columbia University in the City of New York, priority 2004, dated 2014).
Several values for one entry are separate records, joined by “and”; a condition that tells them apart may be missing. Equal entries are not always repeated.

How the values were obtained:
skeletal muscle = conditions: five weeks after left coronary artery ligation; cited from earlier work
RyR2 = conditions: wildtype mice, 0.5 mg/kg/h for 28 days post-myocardial infarction
Description: Equivalent amounts of RyR2 are immunoprecipitated with an antibody against RyR2 (top blot).

hERG = hERG (Homo sapiens, UniProt Q12809); experiment: hERG current, PatchXpress 7000A automatic parallel patch clamp in hERG-transfected HEK 293 cells (Example 6); conditions: human, HEK 293 cells stably transfected with hERG cDNA
Method: (§1) HEK293 cells were transfected with a plasmid containing the hERG cDNA and a neomycin resistance gene. Stable transfectants were selected by culturing the cells in the presence of G418. The selection pressure was maintained by continued culture in the presence of G418. […] Cells for use in electrophysiology were cultured in 35 mm dishes.
(§2) Onset and steady state block of hERG current was measured using a pulse pattern with fixed amplitudes (conditioning prepulse: +20 mV for 2 seconds; test pulse: −50 mV for 2 seconds) repeated at 10 second intervals, from a holding potential of −80 mV. Peak tail current was measured during the 2 second step to −50 mV. A steady state was maintained for at least 30 seconds before applying the test compound or the positive control. Peak tail current was monitored until a new steady state was achieved. Test compound concentrations were applied cumulatively in ascending order without washout between applications.
(§3) Data acquisition and analysis was performed using the suite of pCLAMP (Vre. 8.2) programs (Axon Instruments, Union City, Calif.). Steady state was defined by the limiting constant rate of change with time (linear time dependence). The steady state before and after application of the test or control compounds was used to calculate the percentage of current inhibited at each concentration. […] Nonlinear squares fits were solved with the Solver add-in for Excel 2000 (Microsoft, Redmond, Wash.).
(§4) Multiple compounds of the invention were tested for their effects on hERG currents. The compounds tested were: ARM036-Na, ARM047, ARM048, ARM050, ARM057, ARM064, ARM074, ARM075, ARM076, ARM077, ARM101, ARM102, ARM103, ARM104, ARM106, ARM107 and ARM26. […] Electrophysiological recordings were made using the PatchXpress 7000 A (Molecular Devices) automatic parallel patch clamp system. […] The duration of exposure to each test concentration was 5 minutes.

hERG current = hERG current (Homo sapiens, UniProt Q12809); experiment: as above; conditions: for Individual Data (% Inhibition): single cell; for hERG current inhibition at the highest concentration tested: highest concentration tested (10 μM)
Method: as §1, §2, §3, §4

PKA-phosphorylated RyR2 = target: T1, PKA-phosphorylated RyR2 (Homo sapiens, UniProt Q92736); experiment: FKBP12.6 rebinding assay: FKBP12.6 binding to PKA-phosphorylated RyR2 in cardiac SR; conditions: compound 0.5-1000 nM; Michaelis-Menten curve fitting
T1 construct: from tissue
T1 sequence (Q92736 whole entry): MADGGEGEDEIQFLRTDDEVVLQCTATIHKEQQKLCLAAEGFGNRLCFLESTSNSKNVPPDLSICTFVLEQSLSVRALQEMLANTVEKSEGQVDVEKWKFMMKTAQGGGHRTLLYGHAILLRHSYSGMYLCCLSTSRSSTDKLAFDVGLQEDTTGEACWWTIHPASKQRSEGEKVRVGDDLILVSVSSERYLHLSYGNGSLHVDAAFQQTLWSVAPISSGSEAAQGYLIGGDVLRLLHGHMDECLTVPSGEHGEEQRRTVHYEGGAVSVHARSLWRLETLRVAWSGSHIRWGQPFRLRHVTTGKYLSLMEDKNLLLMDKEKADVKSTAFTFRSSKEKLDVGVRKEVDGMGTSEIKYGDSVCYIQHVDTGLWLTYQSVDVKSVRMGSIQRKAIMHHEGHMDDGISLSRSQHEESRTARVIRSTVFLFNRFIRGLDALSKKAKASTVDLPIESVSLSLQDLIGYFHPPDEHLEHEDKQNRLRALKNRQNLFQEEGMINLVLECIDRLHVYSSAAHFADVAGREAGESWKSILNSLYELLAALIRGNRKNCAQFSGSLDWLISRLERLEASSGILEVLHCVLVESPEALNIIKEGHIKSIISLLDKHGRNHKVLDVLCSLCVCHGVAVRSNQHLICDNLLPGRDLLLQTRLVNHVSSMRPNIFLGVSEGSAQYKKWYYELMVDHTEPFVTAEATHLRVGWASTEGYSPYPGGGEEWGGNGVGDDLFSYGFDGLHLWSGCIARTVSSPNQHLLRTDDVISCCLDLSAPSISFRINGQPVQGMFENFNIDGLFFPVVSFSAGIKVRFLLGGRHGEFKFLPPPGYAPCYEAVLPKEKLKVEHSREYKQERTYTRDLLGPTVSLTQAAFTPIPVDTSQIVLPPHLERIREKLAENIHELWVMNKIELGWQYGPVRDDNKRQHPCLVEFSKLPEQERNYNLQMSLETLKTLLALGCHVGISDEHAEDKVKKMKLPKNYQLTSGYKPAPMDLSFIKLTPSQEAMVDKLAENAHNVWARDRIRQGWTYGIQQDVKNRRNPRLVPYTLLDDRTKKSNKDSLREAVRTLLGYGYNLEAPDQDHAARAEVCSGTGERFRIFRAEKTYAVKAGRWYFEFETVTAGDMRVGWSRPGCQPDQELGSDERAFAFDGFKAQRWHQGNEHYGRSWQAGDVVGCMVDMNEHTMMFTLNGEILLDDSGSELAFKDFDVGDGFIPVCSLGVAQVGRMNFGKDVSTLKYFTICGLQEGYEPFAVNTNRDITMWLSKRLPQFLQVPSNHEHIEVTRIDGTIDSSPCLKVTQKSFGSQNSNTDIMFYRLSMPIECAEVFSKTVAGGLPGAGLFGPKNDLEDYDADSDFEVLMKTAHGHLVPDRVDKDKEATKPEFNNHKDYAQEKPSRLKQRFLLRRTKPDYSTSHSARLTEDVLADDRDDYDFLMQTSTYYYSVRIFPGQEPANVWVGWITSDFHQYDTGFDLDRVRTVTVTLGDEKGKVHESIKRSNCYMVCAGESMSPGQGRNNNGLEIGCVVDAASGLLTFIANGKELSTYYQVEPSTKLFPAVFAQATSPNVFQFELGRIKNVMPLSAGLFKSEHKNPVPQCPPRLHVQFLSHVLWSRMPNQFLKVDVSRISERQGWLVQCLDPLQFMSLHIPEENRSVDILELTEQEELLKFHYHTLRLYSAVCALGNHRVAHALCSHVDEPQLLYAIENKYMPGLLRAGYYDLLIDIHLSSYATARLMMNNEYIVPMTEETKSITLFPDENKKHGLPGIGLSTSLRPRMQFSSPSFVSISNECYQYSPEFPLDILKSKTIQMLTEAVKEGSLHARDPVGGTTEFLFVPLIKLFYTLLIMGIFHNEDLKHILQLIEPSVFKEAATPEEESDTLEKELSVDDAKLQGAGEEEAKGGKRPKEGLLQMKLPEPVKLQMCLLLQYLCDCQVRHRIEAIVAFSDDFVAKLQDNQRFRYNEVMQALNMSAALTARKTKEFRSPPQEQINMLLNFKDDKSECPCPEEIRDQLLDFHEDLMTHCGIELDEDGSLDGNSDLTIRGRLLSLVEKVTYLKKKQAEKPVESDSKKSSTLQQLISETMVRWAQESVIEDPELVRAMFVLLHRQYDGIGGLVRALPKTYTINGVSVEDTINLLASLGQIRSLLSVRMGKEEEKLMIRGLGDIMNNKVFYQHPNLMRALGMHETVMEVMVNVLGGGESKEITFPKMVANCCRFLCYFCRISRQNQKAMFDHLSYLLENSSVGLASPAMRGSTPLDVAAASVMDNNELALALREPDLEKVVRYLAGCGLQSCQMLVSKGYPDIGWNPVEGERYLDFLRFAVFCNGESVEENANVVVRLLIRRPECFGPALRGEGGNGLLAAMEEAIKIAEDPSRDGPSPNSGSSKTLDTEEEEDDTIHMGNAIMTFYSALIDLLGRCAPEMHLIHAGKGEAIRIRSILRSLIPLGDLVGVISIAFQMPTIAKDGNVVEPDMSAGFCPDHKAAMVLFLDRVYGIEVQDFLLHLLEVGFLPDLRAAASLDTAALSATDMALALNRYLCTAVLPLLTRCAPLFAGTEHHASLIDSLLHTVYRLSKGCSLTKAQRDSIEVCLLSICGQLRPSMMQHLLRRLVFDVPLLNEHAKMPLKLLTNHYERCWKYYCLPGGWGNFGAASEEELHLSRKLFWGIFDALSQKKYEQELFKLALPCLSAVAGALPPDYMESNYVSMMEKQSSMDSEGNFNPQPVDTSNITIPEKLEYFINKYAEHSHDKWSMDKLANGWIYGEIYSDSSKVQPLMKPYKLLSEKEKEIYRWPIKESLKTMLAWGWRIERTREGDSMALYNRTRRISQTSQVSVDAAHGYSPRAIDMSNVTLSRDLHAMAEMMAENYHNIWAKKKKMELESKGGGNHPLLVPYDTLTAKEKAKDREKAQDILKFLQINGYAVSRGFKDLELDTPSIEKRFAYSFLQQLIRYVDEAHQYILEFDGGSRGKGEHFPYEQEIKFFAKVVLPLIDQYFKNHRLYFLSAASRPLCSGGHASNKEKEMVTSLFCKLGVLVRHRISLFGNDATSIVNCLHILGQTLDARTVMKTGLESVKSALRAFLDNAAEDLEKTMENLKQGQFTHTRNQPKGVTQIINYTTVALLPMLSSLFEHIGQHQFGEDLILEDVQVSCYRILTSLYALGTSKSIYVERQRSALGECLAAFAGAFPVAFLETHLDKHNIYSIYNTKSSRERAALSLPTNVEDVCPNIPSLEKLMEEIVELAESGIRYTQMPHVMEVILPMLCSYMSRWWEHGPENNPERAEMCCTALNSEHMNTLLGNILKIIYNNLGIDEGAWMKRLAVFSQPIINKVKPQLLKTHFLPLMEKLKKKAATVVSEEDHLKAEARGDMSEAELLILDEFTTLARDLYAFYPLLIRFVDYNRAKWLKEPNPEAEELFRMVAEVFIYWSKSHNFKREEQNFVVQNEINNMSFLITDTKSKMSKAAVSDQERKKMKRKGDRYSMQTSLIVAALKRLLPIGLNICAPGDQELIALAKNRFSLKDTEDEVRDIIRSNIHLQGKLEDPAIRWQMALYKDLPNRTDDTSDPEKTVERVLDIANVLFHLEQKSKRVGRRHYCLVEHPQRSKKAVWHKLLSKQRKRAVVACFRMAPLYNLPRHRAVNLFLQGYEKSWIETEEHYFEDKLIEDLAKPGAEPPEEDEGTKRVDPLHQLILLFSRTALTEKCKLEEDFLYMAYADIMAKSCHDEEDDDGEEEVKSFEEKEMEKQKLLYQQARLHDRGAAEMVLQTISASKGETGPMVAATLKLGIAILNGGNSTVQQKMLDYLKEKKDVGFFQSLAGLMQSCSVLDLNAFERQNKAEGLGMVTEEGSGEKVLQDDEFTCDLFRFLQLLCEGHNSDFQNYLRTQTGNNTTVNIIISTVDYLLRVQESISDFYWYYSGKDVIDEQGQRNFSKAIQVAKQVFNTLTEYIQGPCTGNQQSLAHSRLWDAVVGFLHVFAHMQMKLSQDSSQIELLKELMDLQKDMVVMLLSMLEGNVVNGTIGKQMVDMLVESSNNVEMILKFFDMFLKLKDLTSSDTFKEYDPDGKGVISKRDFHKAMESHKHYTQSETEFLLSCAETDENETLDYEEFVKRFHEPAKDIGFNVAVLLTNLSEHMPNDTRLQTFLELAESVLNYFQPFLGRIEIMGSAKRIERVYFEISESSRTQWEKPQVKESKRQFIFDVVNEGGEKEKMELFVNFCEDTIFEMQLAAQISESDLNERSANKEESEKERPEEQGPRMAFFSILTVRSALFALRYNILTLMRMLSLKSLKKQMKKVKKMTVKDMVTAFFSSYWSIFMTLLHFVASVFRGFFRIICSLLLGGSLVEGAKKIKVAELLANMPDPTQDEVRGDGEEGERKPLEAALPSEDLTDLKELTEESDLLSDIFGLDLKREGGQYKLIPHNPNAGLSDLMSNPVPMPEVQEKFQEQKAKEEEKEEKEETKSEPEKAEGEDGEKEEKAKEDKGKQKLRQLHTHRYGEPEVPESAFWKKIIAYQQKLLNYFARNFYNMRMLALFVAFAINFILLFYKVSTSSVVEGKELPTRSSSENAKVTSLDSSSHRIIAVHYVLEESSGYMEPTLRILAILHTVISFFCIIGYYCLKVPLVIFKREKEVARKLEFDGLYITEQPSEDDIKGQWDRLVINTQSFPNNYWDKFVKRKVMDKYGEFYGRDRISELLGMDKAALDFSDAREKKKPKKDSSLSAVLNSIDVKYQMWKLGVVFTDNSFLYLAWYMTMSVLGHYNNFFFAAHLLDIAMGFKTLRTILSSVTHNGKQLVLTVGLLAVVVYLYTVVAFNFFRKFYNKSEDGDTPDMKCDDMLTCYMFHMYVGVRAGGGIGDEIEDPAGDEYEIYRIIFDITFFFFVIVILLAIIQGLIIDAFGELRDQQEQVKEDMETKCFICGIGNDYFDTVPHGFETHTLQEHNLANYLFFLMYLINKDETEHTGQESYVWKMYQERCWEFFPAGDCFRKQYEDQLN
T1 sequence (P68106 whole entry partner): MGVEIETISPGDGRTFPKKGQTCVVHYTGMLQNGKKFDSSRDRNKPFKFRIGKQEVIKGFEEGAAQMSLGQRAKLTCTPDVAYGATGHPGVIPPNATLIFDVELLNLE
Method: Samples are centrifuged at 95,000 g for 10 min and the pellets are washed three times in 0.2 ml imidazole buffer. The final pellets are pooled and resuspended in imidazole buffer (final concentration≈10 μg/μl). […] Samples then are centrifuged at 100,000 g for 10 minutes and pellets washed 3 times with imidizol buffer. […] Immunoblots are developed using an anti-FKBP antibody (1:3,000 dilution). […] The intracellular solution contains (in mM): CsCl, 60; CaCl2, 1; EGTA, 11; MgCl2, 1; K2ATP, 5; HEPES, 10; aspartic acid, 50; pH 7.4 (CsOH). Under these conditions, it is expected that the measured current was carried by Ba^2+ primarily through L-type calcium channels which is referred to as ICa,L. Drugs are applied by a local solution changer and reach the cell membrane within 1 s.
The FKBP12.6 rebinding assay described above is used to determine the amount of FKBP12.6 binding to PKA-phosphorylated RyR2 at various concentrations (0.5-1000 nM) of the compounds shown. EC50 values are calculated using Michaelis-Menten curve fitting.
The EC50 values are calculated using Michaelis-Menten curve fitting.

[1] = Individual Data (% Inhibition), single cell
[2] = Individual Data (% Inhibition), 10 μM, single cell
[3] = hERG current inhibition at the highest concentration tested, highest concentration tested (10 μM)

| Compound | inhibition at 5 min, 0.01 µM (hERG; [1]) [%] | inhibition at 5 min, 0.1 µM (hERG; [1]) [%] | inhibition at 5 min, 1 µM (hERG; [1]) [%] | inhibition at 5 min, 10 µM (hERG; [2]) [%] | inhibition at 5 min, 0.01 µM (hERG; Mean % hERG Inhibition) [%] | inhibition at 5 min, 0.1 µM (hERG; Mean % hERG Inhibition) [%] | inhibition at 5 min, 1 µM (hERG; Mean % hERG Inhibition) [%] | inhibition at 5 min, 10 µM (hERG; Mean % hERG Inhibition, 10 μM) [%] | EC50 (PKA-phosphorylated RyR2) [nM] | inhibition at 5 min, 10 µM (hERG; [3]) [%] | Mean % hERG Inhibition (hERG current; 0.01 μM) [%] | Mean % hERG Inhibition (hERG current; 0.1 μM) [%] | Mean % hERG Inhibition (hERG current; 1 μM) [%] | Mean % hERG Inhibition (hERG current; 10 μM) [%] | hERG current inhibition at the highest concentration tested (hERG current) | other results |
| --- | --- | --- | --- | --- | --- | --- | --- | --- | --- | --- | --- | --- | --- | --- | --- | --- |
| COc1ccc2c(c1)CN(C(=O)CCN1CCC(Cc3ccccc3)CC1)CCS2.Cl [JTV-519, 4-[3-(4-benzylpiperidin-1-yl)propionyl]-7-methoxy-2,3,4,5-tetrahydro-1,4-benzothiazepine monohydrochloride] | – | – | – | – | – | – | – | – | – | – | – | – | – | – | – | resting heart rate or other ECG parameters (FKBP12.6+/− mice; 0.5 mg/kg/h for 7 days, osmotic mini-pump): no effect; cardiac arrhythmias and sudden cardiac death (FKBP12.6+/− mice; plasma level 1 μM): prevent; skeletal muscle function (skeletal muscle): able to improve skeletal muscle function; PKA phosphorylation of RyR2 at Ser-2808 (RyR2): reduces |
| COc1ccc2c(c1)CNCCS2 [S26] | 9.1 | 12.3 | 11.3 | 56.4 | 8.9 | 10.5 | 12.3 | 58.3 | 40 | – | – | – | – | – | – | IC50 (hERG current): 7030 nM; Individual Data (% Inhibition) (hERG current; 0.01 μM): 8.7%; Individual Data (% Inhibition) (hERG current; 0.1 μM): 8.6%; Individual Data (% Inhibition) (hERG current; 1 μM): 13.2%; Individual Data (% Inhibition) (hERG current; 10 μM): 60.1% |
| CCN(CC)C(=O)N1CCSc2ccc(OC)cc2C1 [S48] | – | 4.2 | 4.7 | 15.2 | 1.3 | 3.6 | 4.1 | 14 | 100 | < 50 | – | – | – | – | – | Individual Data (% Inhibition) (hERG current; 0.01 μM, listed as ARM048, 0.01 µM): 0.5% and 2.0%; Individual Data (% Inhibition) (hERG current; 0.1 μM, listed as ARM048, 0.1 µM): 2.9%; Individual Data (% Inhibition) (hERG current; 1 μM, listed as ARM048, 1 µM): 3.5%; Individual Data (% Inhibition) (hERG current; 10 μM, listed as ARM048, 10 µM): 12.8% |
| COc1ccc2c(c1)CN(C(=O)N1CCNCC1)CCS2 [S64] | – | 9.9 | – | 32 | 0.2 | 9 | 9.6 | 30.3 | 44 | < 50 | – | – | – | – | – | Individual Data (% Inhibition) (hERG current; 0.01 μM, listed as ARM064, 0.01 µM): −0.6% and 1.0%; Individual Data (% Inhibition) (hERG current; 0.1 μM, listed as ARM064, 0.1 µM): 8.1%; Individual Data (% Inhibition) (hERG current; 1 μM, listed as ARM064, 1 µM): 13.2% and 6.0%; Individual Data (% Inhibition) (hERG current; 10 μM, listed as ARM064, 10 µM): 28.5% |
| CCN(CC)C(=O)N1CCSc2ccccc2C1 [S75] | 1.7 | 2.6 | 3.7 | 14.7 | 1.4 | 3.7 | 3.9 | 16 | 150 | < 50 | – | – | – | – | – | Individual Data (% Inhibition) (hERG current; 0.01 μM, listed as ARM075, 0.01 µM): 1.1%; Individual Data (% Inhibition) (hERG current; 0.1 μM, listed as ARM075, 0.1 µM): 4.8%; Individual Data (% Inhibition) (hERG current; 1 μM, listed as ARM075, 1 µM): 4.1%; Individual Data (% Inhibition) (hERG current; 10 μM, listed as ARM075, 10 µM): 17.2% |
| COC(=O)C(=O)N1CCSc2ccccc2C1 [S76] | – | – | – | 10 | 0.4 | 2.5 | 3.1 | 11.2 | 25 | < 50 | – | – | – | – | – | Individual Data (% Inhibition) (hERG current; 0.01 μM, listed as ARM076, 0.01 µM): 0.0% and 0.7%; Individual Data (% Inhibition) (hERG current; 0.1 μM, listed as ARM076, 0.1 µM): 4.0% and 0.9%; Individual Data (% Inhibition) (hERG current; 1 μM, listed as ARM076, 1 µM): 2.0% and 4.1%; Individual Data (% Inhibition) (hERG current; 10 μM, listed as ARM076, 10 µM): 12.3% |
| O=C(O)C(=O)N1CCSc2ccccc2C1 [S77] | – | – | – | – | – | – | – | – | 60 | – | 1.3 | 7.5 | 3.6 | 4.1 | less than 50% | Individual Data (% Inhibition) (hERG current; 0.01 μM, listed as ARM077, 0.01 µM): 1.4% and 1.1%; Individual Data (% Inhibition) (hERG current; 0.1 μM, listed as ARM077, 0.1 µM): 11.4% and 3.6%; Individual Data (% Inhibition) (hERG current; 1 μM, listed as ARM077, 1 µM): 3.1% and 4.0%; Individual Data (% Inhibition) (hERG current; 10 μM, listed as ARM077, 10 µM): 0.9% and 7.2% |
| O=C(N1CCN(Cc2ccc3c(c2)OCO3)CC1)N1CCSc2ccccc2C1 [S101] | 4.3 | 5.1 | 18.9 | 66.7 | 3.4 | 6.4 | 23 | 65.8 | 105 | < 50 | – | – | – | – | – | IC50 (hERG current): 4410 nM; Individual Data (% Inhibition) (hERG current; 0.01 μM, listed as ARM101, 0.01 µM): 2.5%; Individual Data (% Inhibition) (hERG current; 0.1 μM, listed as ARM101, 0.1 µM): 7.6%; Individual Data (% Inhibition) (hERG current; 1 μM, listed as ARM101, 1 µM): 27.0%; Individual Data (% Inhibition) (hERG current; 10 μM, listed as ARM101, 10 µM): 64.9% |
| O=C(N1CCCCC1)N1CCSc2ccccc2C1 [S102] | – | – | – | – | – | – | – | – | 135 | – | 2.5 | 4.2 | 5.7 | 47.3 | less than 50% | Individual Data (% Inhibition) (hERG current; 0.01 μM, listed as ARM102, 0.01 µM): 0.5% and 4.4%; Individual Data (% Inhibition) (hERG current; 0.1 μM, listed as ARM102, 0.1 µM): 1.8% and 6.5%; Individual Data (% Inhibition) (hERG current; 1 μM, listed as ARM102, 1 µM): 0.8% and 10.5%; Individual Data (% Inhibition) (hERG current; 10 μM, listed as ARM102, 10 µM): 46.2% and 48.3% |
| COc1ccc2c(c1)CN(C(=O)C(=O)O)CCS2(=O)=O [S104] | – | – | – | – | – | – | – | – | 111 | – | 1.6 | 2.5 | 4.6 | 7.4 | less than 50% | Individual Data (% Inhibition) (hERG current; 0.01 μM, listed as ARM104, 0.01 µM): 1.2% and 1.9%; Individual Data (% Inhibition) (hERG current; 0.1 μM, listed as ARM104, 0.1 µM): 1.1% and 3.9%; Individual Data (% Inhibition) (hERG current; 1 μM, listed as ARM104, 1 µM): 3.1% and 6.0%; Individual Data (% Inhibition) (hERG current; 10 μM, listed as ARM104, 10 µM): 8.3% and 6.5% |
